The numbers were not newly measured in patent publication US20110150946A1 (priority 2008, published 2011), which cites them from elsewhere.

The conditions of the series: sublingual apomorphine 4 mg per patient.

The structures appear in SMILES notation.

As to `CN1CCc2cccc3c2[C@H]1Cc1ccc(O)c(O)c1-3` [apomorphine, 5,6,6a,7-tetrahydro-6-methyl-4H-dibenzo[de, g]quinoline-10,11-diol], the nausea incidence is 14.1%.
